Measured values published in patent US10919764B2, “Multi-chamber hypochlorous acid dispenser” (WIAB WATER […], priority 2016, dated 2021).

Tested on: spores
Details: acid used for protonization of HOCl
Text: In addition to buffering the product during storage and after application, acetic acid also has the advantage of improving the sporicidal effect by 40% compared to other acids used for protonization of HOCl.

CC(=O)O [acetic acid]
improvement of the sporicidal effect compared to other acids used for protonization of HOCl: 40%
